What was measured:
[1] = Intrinsic clearance in human liver microsomes; assay type: ADME, microsome
[2] = molecular target: Cytochrome P450 2D6 (Homo sapiens, UniProt P10635); assay: Inhibition of human recombinant CYP2D6; assay type: ADME; settings: human, recombinant enzyme
[3] = Total drug level in blood of orally dosed rat model of Freund's complete adjuvant-induced acute inflammatory pain assessed as reduction in reversal of hypersensitivity; assay type: ADME, organism-based; settings: in vivo, po, read-out: Drug uptake
[4] = molecular target: T1, Prostaglandin E2 receptor EP1 subtype (Homo sapiens, UniProt P34995); assay: Activity at EP1 receptor (unknown origin)
T1 sequence (P34995 whole entry): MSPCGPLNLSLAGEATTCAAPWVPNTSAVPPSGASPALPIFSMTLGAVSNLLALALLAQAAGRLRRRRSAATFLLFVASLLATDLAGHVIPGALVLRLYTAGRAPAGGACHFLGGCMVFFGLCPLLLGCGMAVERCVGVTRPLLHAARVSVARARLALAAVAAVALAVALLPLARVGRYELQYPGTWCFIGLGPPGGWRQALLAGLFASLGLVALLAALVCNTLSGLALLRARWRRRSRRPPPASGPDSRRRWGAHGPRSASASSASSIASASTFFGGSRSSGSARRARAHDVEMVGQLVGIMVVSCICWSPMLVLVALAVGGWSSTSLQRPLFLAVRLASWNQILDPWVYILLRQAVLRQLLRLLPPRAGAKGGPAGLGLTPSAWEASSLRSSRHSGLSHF

[5] = molecular target: Cytochrome P450 3A4 (Homo sapiens, UniProt P08684); assay: Inhibition of human recombinant CYP3A4 using 7BQ substrate; assay type: ADME; settings: human, recombinant enzyme
Cytochrome P450 3A4, sequence (P08684 whole entry): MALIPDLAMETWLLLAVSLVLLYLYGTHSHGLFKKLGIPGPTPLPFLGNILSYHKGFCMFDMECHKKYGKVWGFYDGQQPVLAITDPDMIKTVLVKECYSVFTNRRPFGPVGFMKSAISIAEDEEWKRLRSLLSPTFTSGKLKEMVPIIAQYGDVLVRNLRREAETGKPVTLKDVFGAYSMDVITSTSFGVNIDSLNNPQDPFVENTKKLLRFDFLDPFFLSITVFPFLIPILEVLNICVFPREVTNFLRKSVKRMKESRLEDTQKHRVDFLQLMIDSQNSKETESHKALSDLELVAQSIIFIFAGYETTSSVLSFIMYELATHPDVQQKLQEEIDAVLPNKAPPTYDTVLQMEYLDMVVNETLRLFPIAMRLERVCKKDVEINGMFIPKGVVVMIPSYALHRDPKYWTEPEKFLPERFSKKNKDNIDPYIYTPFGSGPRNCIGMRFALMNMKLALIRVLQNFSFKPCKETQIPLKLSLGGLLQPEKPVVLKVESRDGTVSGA

[6] = molecular target: T2, Cytochrome P450 1A2 (Homo sapiens, UniProt P05177); assay: Inhibition of human recombinant CYP1A2; assay type: ADME; settings: human, recombinant enzyme
T2 sequence (P05177 whole entry): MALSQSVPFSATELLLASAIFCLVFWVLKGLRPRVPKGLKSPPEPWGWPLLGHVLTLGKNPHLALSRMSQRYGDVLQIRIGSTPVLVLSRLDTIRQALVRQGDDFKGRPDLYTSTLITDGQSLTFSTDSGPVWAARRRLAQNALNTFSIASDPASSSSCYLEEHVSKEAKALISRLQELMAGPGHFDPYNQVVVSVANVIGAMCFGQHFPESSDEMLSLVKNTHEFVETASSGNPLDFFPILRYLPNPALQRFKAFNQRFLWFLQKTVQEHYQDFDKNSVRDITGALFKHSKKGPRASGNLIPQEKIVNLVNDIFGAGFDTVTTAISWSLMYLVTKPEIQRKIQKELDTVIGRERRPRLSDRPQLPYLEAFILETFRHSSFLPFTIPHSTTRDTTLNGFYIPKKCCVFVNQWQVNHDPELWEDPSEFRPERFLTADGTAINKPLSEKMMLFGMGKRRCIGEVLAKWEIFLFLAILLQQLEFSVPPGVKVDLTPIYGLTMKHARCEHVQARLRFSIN

[7] = Protein binding in dog plasma; assay type: ADME, cell-free, Canis lupus familiaris; settings: read-out: PPB (converted)
[8] = Protein binding in human plasma; assay type: ADME, cell-free; settings: read-out: PPB
[9] = Half life in orally dosed dog; assay type: ADME, organism-based, Canis lupus familiaris; settings: in vivo, po
[10] = organism: Homo sapiens; assay: Selectivity index, ratio of agonist activity at IP receptor (unknown origin) to pEC50 for partial agonist activity at human EP4 receptor expressed in HEK293-AEQ17 cells; assay type: cell-based
[11] = test system: Rattus norvegicus; assay: Analgesic activity in orally dosed rat model of Freund's complete adjuvant-induced acute inflammatory pain assessed as reversal of FCA-induced hypersensitivity; assay type: functional; settings: po
[12] = Ratio of drug level in brain to blood in rat at 1 mg/kg, po; assay type: ADME, organism-based
[13] = Blood clearance in rat at 1 mg/kg, po; assay type: ADME, organism-based
[14] = molecular target: Prostaglandin E2 receptor EP2 subtype (Homo sapiens) (UniProt P43116); assay: Agonist activity at EP2 receptor (unknown origin) assessed as induction of receptor activation at 1 uM; assay type: functional
Prostaglandin E2 receptor EP2 subtype (Homo sapiens), sequence (P43116 whole entry): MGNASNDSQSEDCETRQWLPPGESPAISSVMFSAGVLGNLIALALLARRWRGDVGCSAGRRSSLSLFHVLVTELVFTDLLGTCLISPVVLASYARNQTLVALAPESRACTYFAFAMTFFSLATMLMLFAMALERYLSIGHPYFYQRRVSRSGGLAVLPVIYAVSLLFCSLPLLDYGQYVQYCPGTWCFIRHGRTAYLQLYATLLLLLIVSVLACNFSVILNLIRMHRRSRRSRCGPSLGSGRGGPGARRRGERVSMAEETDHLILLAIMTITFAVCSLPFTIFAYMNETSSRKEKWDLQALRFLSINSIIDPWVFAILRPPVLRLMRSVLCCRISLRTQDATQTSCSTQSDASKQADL

[15] = Protein binding in rat plasma; assay type: ADME, cell-free; settings: read-out: PPB (converted)

Cytochrome P450 2D6, sequence (P10635 whole entry): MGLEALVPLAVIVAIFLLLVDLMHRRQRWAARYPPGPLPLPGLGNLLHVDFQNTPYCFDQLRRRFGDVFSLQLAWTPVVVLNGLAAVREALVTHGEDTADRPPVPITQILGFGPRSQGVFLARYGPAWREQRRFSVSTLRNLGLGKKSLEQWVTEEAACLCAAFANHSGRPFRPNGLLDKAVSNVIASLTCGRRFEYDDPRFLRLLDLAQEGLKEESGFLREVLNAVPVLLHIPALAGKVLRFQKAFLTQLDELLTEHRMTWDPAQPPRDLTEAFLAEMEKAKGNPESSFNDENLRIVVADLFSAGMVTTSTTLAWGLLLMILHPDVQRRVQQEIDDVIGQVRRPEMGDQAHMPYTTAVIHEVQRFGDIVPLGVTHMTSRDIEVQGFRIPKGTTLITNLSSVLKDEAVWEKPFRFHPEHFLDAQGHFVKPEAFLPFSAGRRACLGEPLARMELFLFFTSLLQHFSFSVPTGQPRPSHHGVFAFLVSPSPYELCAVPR

- CLH [1]: < 1 mL/min/g
- INH [2]: > 100 µM
- concentration [3]: 600 nM
- IC50 [4]: > 10 µM
- INH [5]: > 100 µM
- INH [6]: > 100 µM
- fraction unbound [7]: 0.009
- fraction unbound [8]: 0.001
- half-life [9]: 8 h
- Kp [12]: < 0.05
- CL/F [13]: 1 mL/min/kg
- Activity [14]: 14%
- fraction unbound [15]: 0.002
Compound: CCOc1c2c(c(OCC)c3ccccc13)C(=O)N(c1ccc(CC(=O)O)c(F)c1)C2
- Selectivity ratio [10]: > 100
- ED50 [11]: 0.2 to 0.22 mg/kg

Reference: ChEMBL document CHEMBL4219215, “Discovery of {4-[4,9-bis(ethyloxy)-1-oxo-1,3-dihydro-2H-benzo[f]isoindol-2-yl]-2-fluorophenyl}acetic acid (GSK726701A), a novel EP4 receptor partial agonist for the treatment of pain” (Bioorg Med Chem Lett, 2018)
